# Values joined by “and” are separate entries in the source; they are usually repeats but may differ in a detail not shown here. Equal entries are not always repeated. Where two headings read alike, the source gives them in different places. Numbered stars: 1 amine (or outer) side, 2 acyl side, 3 side chain; on linkers, the order of the positions; unused ones are H or OH. Bridge positions count the residues as written; N and C are the ends. Square brackets hold non-standard residues; d marks the D form. Peptide text beside a SMILES is read from it. I, II: the chains in the order shown. Actinocin(9to1) = Cc1c2oc3c(C)ccc(C(=O)[*:1])c3nc-2c(C(=O)[*:2])c(N)c1=O; NMeV = CN[C@H](C(=O)O)C(C)C; Sar = CNCC(=O)O
# Legend:
# [1] = assay type: in vivo, mice; details: for Brain peak area / Kidney concentration / Liver concentration: per gram of tissue
# MDCKII-ABCG2 cells [2] = test: Growth inhibition; assay type: cell-based, canine; details: MDCKII-ABCG2, Act D alone or with KO143, p = 0.74
# ABCG2 (BCRP) = test: Growth inhibition; assay type: cell-based, canine; details: dog, MDCKII cells transfected with human ABCG2 (BCRP)
# in vivo = assay type: in vivo, mice; details: for Cmax / Tmax / half-life: mouse, in vivo, iv
# MDCKII-ABCC1 cells [3] = test: Cellular efflux of Act D after 4 h uptake; assay type: in vitro ADME, canine; details: MDCKII-ABCC1, after 4 h with 0.1 μM Act D
# MDCKII-ABCC2 cells = test: Cellular efflux of Act D after 4 h uptake; assay type: in vitro ADME, canine
# MDCKII-ABCG2 cells [4] = test: Cellular efflux of Act D after 4 h uptake; assay type: in vitro ADME, canine; details: MDCKII-ABCG2, not statistically significant
# MDCKII-WT cells [5] = test: Growth inhibition; assay type: cell-based, canine
# MDCKII-ABCC1 cells [6] = test: Intracellular accumulation of Act D; assay type: in vitro ADME, canine
# MDCKII-WT cells [7] = test: Fluorescence competition assay with ABCB1 substrate doxorubicin; assay type: cell-based, canine; details: 1 h pre-incubation, doxorubicin 10 μM 1 h
# [8] = WT mice, 0.25 h, 0.5 mg/kg i.v.
# [9] = Abcb1a/1b−/− knockout (parental strain FVB), 0.5 mg/kg
# [10] = Abcc2−/− knockout (parental strain FVB), 0.5 mg/kg
# [11] = Abcc2−/− mice, 0.5 mg/kg i.v., 0.5 mg/kg
# [12] = WT mice, 0.5 mg/kg i.v., 0.5 mg/kg
smiles,measurement,setting,value
"Cc1c2oc3c(C)ccc(C(=O)N[C@@H]4C(=O)N[C@H](C(C)C)C(=O)N5CCC[C@H]5C(=O)N(C)CC(=O)N(C)[C@@H](C(C)C)C(=O)O[C@@H]4C)c3nc-2c(C(=O)N[C@@H]2C(=O)N[C@H](C(C)C)C(=O)N3CCC[C@H]3C(=O)N(C)CC(=O)N(C)[C@@H](C(C)C)C(=O)O[C@@H]2C)c(N)c1=O [Act D, actinomycin D] (I: T[dV]P[Sar][NMeV] / II: T[dV]P[Sar][NMeV]; ester I:1-I:C, II:1-II:C; linker I:N-II:N via Actinocin(9to1))",Liver AUC0–6 h,"[1]; WT mice, 0.5 mg/kg i.v.",4473 ng·h/mL
same,Liver AUC0–∞,"[1]; WT mice, 0.5 mg/kg i.v.",5387 ng·h/mL
same,Liver Cmax,"[1]; WT mice, 0.5 mg/kg i.v.",1810 ± 155 ng/mL
same,Brain peak area,[1]; [8],1071 ± 217 pa
same,Kidney concentration,[1]; [8],"13,323 ± 3960 μg/L"
same,Liver concentration,[1]; [8],1810 ± 155 µg/L
same,Brain peak area,"[1]; WT mice, 0.5 h, 0.5 mg/kg i.v.",775.3 ± 127 pa
same,Kidney concentration,"[1]; WT mice, 0.5 h, 0.5 mg/kg i.v.","10,713 ± 2498 μg/L"
same,Liver concentration,"[1]; WT mice, 0.5 h, 0.5 mg/kg i.v.",1593 ± 167 µg/L
same,Brain peak area,"[1]; WT mice, 2 h, 0.5 mg/kg i.v.",501 ± 28.9 pa
same,Kidney concentration,"[1]; WT mice, 2 h, 0.5 mg/kg i.v.",4693 ± 415 µg/L
same,Liver concentration,"[1]; WT mice, 2 h, 0.5 mg/kg i.v.",747 ± 165 µg/L
same,Brain peak area,"[1]; WT mice, 6 h, 0.5 mg/kg i.v.",309 ± 156 pa
same,Kidney concentration,"[1]; WT mice, 6 h, 0.5 mg/kg i.v.",1970 ± 150 µg/L
same,Liver concentration,"[1]; WT mice, 6 h, 0.5 mg/kg i.v.",287 ± 40 µg/L
same,Act D accumulation over 6 h in the kidneys higher than the liver,[1]; irrespective of transporter knockout genotype,6.6- to 7.7 fold
same,difference in sensitivity vs parental cell line,MDCKII-ABCG2 cells [2],No difference in sensitivity
same,GI50 at 72 h,ABCG2 (BCRP),14 nM
same,greater plasma AUC0–∞ in Abcb1a/1b−/− mice compared to WT,in vivo; 0.5 mg/kg i.v.,1.9 fold
same,higher plasma AUC0–6 h in Abcb1a/1b−/− mice compared to WT,in vivo; 0.5 mg/kg i.v.,1.6 fold
same,higher plasma Cmax at 15 min in Abcb1a/1b−/− mice compared to WT,in vivo; 0.5 mg/kg i.v.,1.4 fold
same,higher plasma concentration at 30 min in Abcb1a/1b−/− mice compared to WT,in vivo; 0.5 mg/kg i.v.,1.7 fold
same,longer elimination half-life (t1/2) in Abcb1a/1b−/− mice compared to WT,in vivo; 0.5 mg/kg i.v.,1.5 fold
same,Cmax,in vivo; [9],96.7 ± 12 ng/mL
same,Tmax,in vivo; [9],0.25 h
same,half-life,in vivo; [9],2.78 h
same,plasma AUC0–∞,"in vivo; Abcb1a/1b−/− mice, 0.5 mg/kg i.v., 0.5 mg/kg",322.6 ng·h/mL
same,Act D plasma concentration,"in vivo; Abcb1a/1b−/− mice, 0.25 h, 0.5 mg/kg i.v.",96.7 ± 12.0 µg/L
same,Act D plasma concentration,"in vivo; Abcb1a/1b−/− mice, 0.5 h, 0.5 mg/kg i.v., 0.5 mg/kg",71.6 µg/L and 71.6 ± 12.3 µg/L
same,Act D plasma concentration,"in vivo; Abcb1a/1b−/− mice, 2 h, 0.5 mg/kg i.v.",35.8 ± 2.01 µg/L
same,Act D plasma concentration,"in vivo; Abcb1a/1b−/− mice, 6 h, 0.5 mg/kg i.v.",20.1 ± 0.78 µg/L
same,half-life,"in vivo; Abcc2−/− knockout (FVB background), 0.5 mg/kg",2.46 h
same,Cmax,in vivo; [10],48 ± 11.1 ng/mL
same,Tmax,in vivo; [10],0.25 h
same,plasma AUC0–6 h,in vivo; [11],114.8 ng·h/mL
same,plasma AUC0–∞,in vivo; [11],145.2 ng·h/mL
same,Act D plasma concentration,"in vivo; Abcc2−/− mice, 0.25 h, 0.5 mg/kg i.v.",48.0 ± 11.1 µg/L
same,Act D plasma concentration,"in vivo; Abcc2−/− mice, 0.5 h, 0.5 mg/kg i.v.",37.7 ± 6.07 µg/L
same,Act D plasma concentration,"in vivo; Abcc2−/− mice, 2 h, 0.5 mg/kg i.v.",16.3 ± 3.73 µg/L
same,Act D plasma concentration,"in vivo; Abcc2−/− mice, 6 h, 0.5 mg/kg i.v.",8.6 ± 0.96 µg/L
same,Cmax,"in vivo; FVB (wild type), 0.5 mg/kg",68.6 ± 15.6 ng/mL
same,Tmax,"in vivo; FVB (wild type), 0.5 mg/kg",0.25 h
same,half-life,"in vivo; FVB (wild type), 0.5 mg/kg",1.92 h
same,plasma AUC0–6 h,in vivo; [12],151.5 ng·h/mL
same,plasma AUC0–∞,in vivo; [12],168.1 ng·h/mL
same,Act D plasma concentration,in vivo; [8],68.6 ± 15.6 µg/L
same,Act D plasma concentration,"in vivo; WT mice, 0.5 h, 0.5 mg/kg i.v., 0.5 mg/kg",43.3 µg/L and 43.3 ± 7.68 µg/L
same,Act D plasma concentration,"in vivo; WT mice, 2 h, 0.5 mg/kg i.v.",25.8 ± 4.78 µg/L
same,Act D plasma concentration,"in vivo; WT mice, 6 h, 0.5 mg/kg i.v.",6.0 ± 0.65 µg/L
same,reduction in intracellular Act D over 2 h after drug removal,MDCKII-ABCC1 cells [3],1.9 fold
same,reduction in intracellular Act D over 2 h after drug removal,"MDCKII-ABCC2 cells; MDCKII-ABCC2, after 4 h with 0.1 μM Act D",2.1 fold
same,reduction in intracellular Act D over 1 h after drug removal,"MDCKII-ABCC2 cells; MDCKII-ABCC2, compared to parental cell line",1.8 fold
same,higher intracellular Act D after 2 h,MDCKII-ABCG2 cells [4],1.5 fold
same,increase in sensitivity to Act D with MK571,MDCKII-WT cells [5]; MK571 25 μM,3 fold
same,reduction in GI50 with verapamil,"MDCKII-WT cells [5]; verapamil 1 μM, 72 h",3 fold
same,increased accumulation with MK571 compared to absence of inhibitor,"MDCKII-ABCC1 cells [6]; MDCKII-ABCC1, not statistically significant",1.2 fold
same,lower accumulation of Act D compared to parental cell line,"MDCKII-ABCC1 cells [6]; MDCKII-ABCC1 vs MDCKII-WT, 12 h",2.5 fold and 2.45 fold
same,Act D concentration at which intracellular doxorubicin levels plateaued,MDCKII-WT cells [7],0.1 to 1 µM

# Source: publication PMC3545186 (Biochemical Pharmacology, 2013)
